In one assay the target is T1, HPPD (p-hydroxyphenylpyruvate dioxygenase) (Arabidopsis thaliana, UniProt P93836).
T1 construct: gene HPD; recombinant, overexpressed in E. coli, tested in total soluble protein extract; 1SP9 given only as docking structure
T1 sequence (P93836 1-445): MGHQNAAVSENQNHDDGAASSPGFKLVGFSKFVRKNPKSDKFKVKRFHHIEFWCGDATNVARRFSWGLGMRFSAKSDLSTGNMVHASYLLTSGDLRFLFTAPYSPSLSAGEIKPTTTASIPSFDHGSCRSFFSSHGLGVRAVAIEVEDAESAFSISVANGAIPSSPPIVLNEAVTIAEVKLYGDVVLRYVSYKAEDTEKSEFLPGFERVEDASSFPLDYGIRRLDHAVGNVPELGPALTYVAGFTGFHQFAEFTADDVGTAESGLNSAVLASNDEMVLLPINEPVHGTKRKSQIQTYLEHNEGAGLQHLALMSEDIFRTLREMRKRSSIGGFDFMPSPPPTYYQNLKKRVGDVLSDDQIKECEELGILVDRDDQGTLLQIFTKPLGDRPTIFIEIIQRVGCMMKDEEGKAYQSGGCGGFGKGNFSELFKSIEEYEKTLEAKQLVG
The assay can be described thus: HPLC of homogentisate formed ([…] nm), dose-response. Format: biochemical. As to conditions: 15 min incubation; slow tight-binding class; E. coli total soluble protein extract; positive control; read-out: I50app.
Consider `CS(=O)(=O)c1ccc(C(=O)C2C(=O)CCCC2=O)c(Cl)c1` [sulcotrione, reference compound], for which the IC50 was determined as 0.25 ± 0.02 µM.

The assay is the same for the next values; noted with them: read-out: I50 (μM) ^ab.
As to `CC1(C)CC(=O)C(C(=O)CCc2ccccc2)C(=O)C1` [8e], the IC50 is 2.17 ± 0.37 µM.

`O=C(C=Cc1ccc(Br)cc1)C1C(=O)CCCC1=O` [17a]: the IC50 was 7.55 ± 0.93 µM.

Regarding `COc1ccc(C=CC(=O)C2C(=O)CCCC2=O)cc1OC` [12a], the IC50 came out at 9.16 ± 1.21 µM.

In the case of `COc1cc(CCC(=O)C2C(=O)CC(C)(C)CC2=O)cc(OC)c1OC` [14d], the IC50 is 2.29 ± 0.25 µM.

Regarding `COc1ccc(CCC(=O)C2C(=O)CC(C)(C)CC2=O)cc1OC` [12d], the IC50 was 8.69 ± 1.32 µM.

Turning to `O=C1CCCC(=O)C1C(=O)CCc1ccccc1` [8b], the IC50 is 1.27 ± 0.09 µM.

With `CCCCCCCCCCCc1noc2c1C(=O)C(O)CC2` (stereo not shown) [5c], the IC50 is more than 100 µM.

Regarding `CC1(C)CC(=O)C(C(=O)CCc2ccc(Cl)cc2)C(=O)C1` [16d], the IC50 came out at 2.05 ± 0.19 µM.

For `CC(=O)CCCC(=O)C1C(=O)CCCC1=O` [7a], the IC50 came out at 9.6 ± 1.4 µM.

For the compound `CCCC(=O)C1C(=O)CC(C)(C)CC1=O` [2b], the IC50 was 16.6 ± 4.36 µM.

In the case of `CC(=O)C1C(=O)CC(C)(C)CC1=O` [1f], the IC50 is 53.1 ± 17.1 µM.

As to `CCCCCCCCCCCC(=O)C1C(=O)CCCC1=O` [5b], the IC50 was found to be 0.3 ± 0.03 µM.

On to `CC(=O)C1=C(O)C(O)C(C)(C)CC1=O` (stereo not shown) [1h], for which the IC50 came to 166 ± 19.7 µM.

As to `CCCCCCCCCCCc1noc2c1C(=O)CC(C)(C)C2` [5e], the IC50 was more than 100 µM.

Take `COc1ccc(CCC(=O)C2=C(O)C(O)CCC2=O)cc1` (stereo not shown) [11c]: the IC50 is 59.5 ± 11.8 µM.

For the compound `CC1(C)CC(=O)C(C(=O)C=Cc2cccc(Br)c2)C(=O)C1` [18b], the IC50 was 2.42 ± 0.25 µM.

For the compound `COc1ccc(C=CC(=O)C2C(=O)CC(C)(C)CC2=O)cc1OC` [12c], the IC50 was 14.1 ± 2.21 µM.

For the compound `CN(C)c1ccc(CCC(=O)C2C(=O)CCCC2=O)cc1` [15b], the IC50 amounted to 4.47 ± 0.51 µM.

On to `O=C(C=Cc1ccccc1)C1C(=O)CCCC1=O` [8a], for which the IC50 is 5.43 ± 0.58 µM.

As to `COc1ccc(CCC(=O)C2C(=O)CCCC2=O)cc1` [11b], the IC50 was determined as 2.36 ± 0.3 µM.

Consider `O=C(C=Cc1cccc(Br)c1)C1C(=O)CCCC1=O` [18a], for which the IC50 came to 0.82 ± 0.08 µM.

Consider `CCCCCC(=O)C1C(=O)CCCC1=O` [3b], for which the IC50 is 2.93 ± 0.47 µM.

As for `COc1ccc(CCC(=O)C2C(=O)CCCC2=O)cc1OC` [12b], the IC50 was 1.35 ± 0.18 µM.

For the compound `Cc1ccccc1C=CC(=O)C1C(=O)CC(C)(C)CC1=O` [9c], the IC50 came out at 28.7 ± 8.7 µM.

With `Cc1ccccc1CCC(=O)C1C(=O)CCCC1=O` [9b], the IC50 was found to be 0.97 ± 0.09 µM.

With `CCCCCCCCCC(=O)C1C(=O)CC(C)(C)CC1=O` [4e], the IC50 is 2.66 ± 0.95 µM.

With `CCCCCCCCCC(=O)C1C(=O)CCCC1=O` [4b], the IC50 stood at 0.46 ± 0.06 µM.

On to `COc1cccc(C=CC(=O)C2C(=O)CCCC2=O)c1` [10a], for which the IC50 was 0.89 ± 0.1 µM.

`O=C(/C=C/c1ccccc1)C1=C(O)C(O)CCC1=O` (stereo not shown) [8c]: the IC50 was 59 ± 3.16 µM.

As to `CCCCCCCCCCCC(=O)C1C(=O)CC(C)(C)CC1=O` [5f], the IC50 is 0.77 ± 0.11 µM.

As to `CCCCCCCCCc1noc2c1C(=O)C(O)CC2` (stereo not shown) [4c], the IC50 is more than 100 µM.

As for `CC1(C)CC(=O)C(C(=O)C=Cc2ccc(Br)cc2)C(=O)C1` [17c], the IC50 was 8.34 ± 1.57 µM.

`CCCCCCCCCCCc1noc2c1C(=O)CCC2` [5a]: the IC50 was more than 100 µM.

`CC1(C)CC(=O)C(C(=O)C=Cc2ccccc2)C(=O)C1` [8d]: the IC50 is 58.6 ± 8.67 µM.

For the compound `CCCCCC(=O)C1C(=O)CC(C)(C)CC1=O` [3e], the IC50 was found to be 4.17 ± 0.45 µM.

As to `CCCC(=O)C1C(=O)CCCC1=O` [2a], the IC50 turned out to be 35.1 ± 6.24 µM.

On to `COc1cc(C=CC(=O)C2C(=O)CCCC2=O)cc(OC)c1OC` [14a], for which the IC50 came to 2.06 ± 0.13 µM.

As to `CC(=O)C1C(=O)CCCC1=O` [1b], the IC50 is 23.1 ± 4.34 µM.

Consider `COc1cccc(CCC(=O)C2C(=O)CC(C)(C)CC2=O)c1` [10d], for which the IC50 is 1.5 ± 0.17 µM.

As to `COc1ccc(C=CC(=O)C2C(=O)CC(C)(C)CC2=O)cc1` [11d], the IC50 came to 141 ± 27 µM.

With `O=C(C=Cc1ccc([N+](=O)[O-])cc1)C1C(=O)CCCC1=O` [19a], the IC50 was found to be 7.61 ± 0.89 µM.

Take `CCCCCCCCCCCCCCCCC(=O)C1C(=O)CC(C)(C)CC1=O` [6b]: the IC50 came out at 1.7 ± 0.31 µM.

Take `COc1cccc(C=CC(=O)C2C(=O)CC(C)(C)CC2=O)c1` [10c]: the IC50 stood at 6.4 ± 1.2 µM.

Consider `Cc1noc2c1C(=O)CCC2` [1a], for which the IC50 was more than 100 µM.

With `O=C(/C=C/c1ccc(Br)cc1)C1=C(O)C(O)CCC1=O` (stereo not shown) [17b], the IC50 amounted to 28.7 ± 4.82 µM.

For the compound `CC(=O)C1=C(O)C(O)CCC1=O` (stereo not shown) [1d], the IC50 was more than 1000 µM.

Regarding `CCCCCCCCCCCc1noc2c1C(=O)C(O)C(C)(C)C2` (stereo not shown) [5g], the IC50 is more than 100 µM.

In the case of `CCCCCC(=O)C1=C(O)C(O)CCC1=O` (stereo not shown) [3d], the IC50 was 15.8 ± 4.9 µM.

Regarding `Cc1noc2c1C(=O)C(O)C(C)(C)C2` (stereo not shown) [1g], the IC50 was more than 100 µM.

With `CCCCCCCCCc1noc2c1C(=O)CCC2` [4a], the IC50 is more than 100 µM.

Turning to `Cc1noc2c1C(=O)CC(C)(C)C2` [1e], the IC50 was more than 100 µM.

As for `COc1ccc(C=CC(=O)C2C(=O)CCCC2=O)cc1` [11a], the IC50 turned out to be 12.3 ± 1.6 µM.

With `CC1(C)CC(=O)C(C(=O)C=Cc2ccc([N+](=O)[O-])cc2)C(=O)C1` [19b], the IC50 stood at 27.5 ± 2.39 µM.

As for `CCCCCCCCCC(=O)C1=C(O)C(O)CCC1=O` (stereo not shown) [4d], the IC50 turned out to be 1.25 ± 0.4 µM.

As to `CCCCCCCCCCCC(=O)C1=C(O)C(O)CCC1=O` (stereo not shown) [5d], the IC50 stood at 0.18 ± 0.02 µM.

In the case of `CC(=O)CCCC(=O)C1C(=O)CC(C)(C)CC1=O` [7b], the IC50 was determined as 17.2 ± 2.6 µM.

In the case of `Cc1ccccc1C=CC(=O)C1C(=O)CCCC1=O` [9a], the IC50 worked out at 1.2 ± 0.14 µM.

On to `CN(C)c1ccc(CCC(=O)C2C(=O)CC(C)(C)CC2=O)cc1` [15d], for which the IC50 came to 3.46 ± 0.64 µM.

For `Cc1noc2c1C(=O)C(O)CC2` (stereo not shown) [1c], the IC50 is more than 100 µM.

Take `COc1cccc(CCC(=O)C2C(=O)CCCC2=O)c1` [10b]: the IC50 was found to be 0.31 ± 0.04 µM.

For `O=C1CCCC(=O)C1C(=O)CCc1ccc(Cl)cc1` [16b], the IC50 stood at 0.24 ± 0.02 µM.

For `COc1ccc(CCC(=O)C2C(=O)CC(C)(C)CC2=O)cc1` [11e], the IC50 was 12.9 ± 2.18 µM.

For the compound `CCCCCCCCCCCCCCCCC(=O)C1C(=O)CCCC1=O` [6a], the IC50 is 1.58 ± 0.2 µM.

Turning to `COc1cc(C=CC(=O)C2C(=O)CC(C)(C)CC2=O)cc(OC)c1OC` [14c], the IC50 was found to be 2.22 ± 0.5 µM.

As for `CCCCCc1noc2c1C(=O)CCC2` [3a], the IC50 was more than 100 µM.

On to `CCCCCc1noc2c1C(=O)C(O)CC2` (stereo not shown) [3c], for which the IC50 is more than 100 µM.

For the origin of these results see publication PMC9459959, “Synthesis and Activity of 2-Acyl-cyclohexane-1,3-dione Congeners Derived from Peperomia Natural Products against the Plant p-Hydroxyphenylpyruvate Dioxygenase Herbicidal Molecular Target Site” (Plants, 2022).
